# Like-named read-outs stand apart in the source and are kept apart here.
# How the values were obtained:
# myzus persicae = settings: for numbers of death/total numbers: 24 h
# aphis gossypii = settings: 24 h
# hyalopterus pruni = settings: 24 h
SMILES,numbers of death/total numbers (myzus persicae; 25 μg/mL),numbers of death/total numbers (myzus persicae; 50 μg/mL),numbers of death/total numbers (myzus persicae; 100 μg/mL),numbers of death/total numbers (myzus persicae; 200 μg/mL),numbers of death/total numbers (myzus persicae; 400 μg/mL),mortality(%) myzus persicae (600 μg/mL) (myzus persicae; in vivo) [%],numbers of death/total numbers (aphis gossypii; 3.13 μg/mL),numbers of death/total numbers (aphis gossypii; 12.5 μg/mL),numbers of death/total numbers (aphis gossypii; 50 μg/mL),mortality(%) Helicoverpa armigera (500 μg/mL) (Helicoverpa armigera; in vivo) [%],mortality(%) asparagus caterpillar (500 μg/mL) (asparagus caterpillar; in vivo) [%],numbers of death/total numbers (hyalopterus pruni; 25 μg/mL),numbers of death/total numbers (hyalopterus pruni; 50 μg/mL),numbers of death/total numbers (hyalopterus pruni; 100 μg/mL),numbers of death/total numbers (hyalopterus pruni; 200 μg/mL),numbers of death/total numbers (hyalopterus pruni; 400 μg/mL),mortality(%) bemisia tabaci gennadius (500 μg/mL) (bemisia tabaci gennadius; in vivo) [%],also measured
CCCCCCC=NNC(=N[N+](=O)[O-])NCc1ccc(Cl)nc1 [Compound 50],78/78,91/92,87/87,103/107,96/96,100,156/157,150/150,245/245,20,0,104/108,98/102,101/101,110/110,102/102,,
CCCCC=NNC(=N[N+](=O)[O-])NCc1ccc(Cl)nc1 [Compound 56],104/104,96/99,149/149,81/81,77/77,100,121/157,136/164,166/178,70,20,100/104,96/101,121/121,101/101,103/103,,
C=CCNC(=N[N+](=O)[O-])NN=Cc1ccccc1Cl [Compound 93],112/112,94/98,104/104,114/114,93/93,96.0,178/186,124/124,138/138,40,70,102/112,104/108,103/103,110/110,103/103,,
O=[N+]([O-])N=C(NCc1ccc(Cl)nc1)NN=Cc1ccccc1 [Compound 110],,,,,,,,,,,,,,,,,,"mortality(%) myzus persicae (600 μg/mL) (myzus persicae; 600 μg/mL): 92.8%; mortality(%) Helicoverpa armigera (500 μg/mL) (Helicoverpa armigera; 500 μg/mL, 48 hours): 0%; mortality(%) asparagus caterpillar (500 μg/mL) (asparagus caterpillar; 500 μg/mL, 48 hours): 30%; mortality(%) bemisia tabaci gennadius (500 μg/mL) (bemisia tabaci gennadius; 500 μg/mL, 48 hours): 6.67%"
O=[N+]([O-])N=C(NCc1ccc(Cl)nc1)NN=Cc1ccccc1Cl [Compound 111],,,,,,22.0,,,,0,40,,,,,,13.89,
COc1ccc(C=NNC(=N[N+](=O)[O-])NCc2ccc(Cl)nc2)cc1 [Compound 112],,,,,,54.4,,,,10,90,,,,,,3.77,
O=[N+]([O-])N=C(NCc1ccc(Cl)nc1)NN=Cc1ccc(F)cc1 [Compound 114],,,,,,72.3,,,,40,70,,,,,,2.04,
O=[N+]([O-])N=C(NCc1ccc(Cl)nc1)NN=Cc1ccco1 [Compound 115],,,,,,86.0,,,,10,80,,,,,,9.30,
CCOc1ccc(C=NNC(=N[N+](=O)[O-])NCc2ccc(Cl)nc2)cc1OC [Compound 134],,,,,,,,,,,,,,,,,1.82,
